Earlier results on one compound are cited in patent US7109169B2, “Method for treating heart failure by inhibiting the sarcolemmal sodium/calcium exchange” (priority 2002, dated 2006).

For `N=C(N)SCCc1ccc(OCc2ccc([N+](=O)[O-])cc2)cc1` [KB-R7943], the “mode of the Na/Ca exchanger inhibited” value in the series with Na/Ca exchanger is reported as “predominantly the Ca-entry mode”. In addition, the specificity of action result in the series with Na/Ca exchanger (inhibits a variety of ion channels in the cardiac membrane) is on record as “completely non-specific”. The “effect on cardiac contractility” value with cardiac contractility is recorded as “no effect”.
